{"source": "patent US20080095853A1", "about": "“Modified Release For Proton Pump Inhibitors” (priority 2004, published 2008)", "origin": "cited, not measured here", "system": "gastric acid", "settings": "splitting a 40 mg dose into 20 mg bid", "data": [{"smiles": "COc1ccc2nc([S@@+]([O-])Cc3ncc(C)c(OC)c3C)[nH]c2c1", "note": "[esomeprazole]", "values": [{"measurement": "nocturnal gastric acid suppression", "value": "significantly improved"}]}]}
